Assay results published in publication PMC10526274, “Epithelial-Immune Cell Crosstalk Determines the Activation of Immune Cells In Vitro by the Human Cathelicidin LL-37 at Low Physiological Concentrations” (Biomolecules, 2023).
Several values for one entry are separate records, joined by “and”; a condition that tells them apart may be missing. Equal values may be shown once.

Tested on: primary blood monocytes
Experiment: Multiplex xMAP cytokine levels, primary blood monocytes alone stimulated with LL-37
Type: cell-based, human
Conditions: 1 µM LL-37, 24 h
Protocol: Peripheral blood mononuclear cells (PBMCs) from a healthy donor were purchased from the American Type Culture Collection (ATCC PCS-800-011). Blood monocytes were isolated from PBMCs by plastic adhesion. Mature monocyte-derived dendritic cells (moDCs) were generated in vitro from peripheral blood monocytes, according to Nair et al.. Briefly, monocytes were cultured in a humidified CO2-incubator (5% CO2, 37 °C) in the complete RPMI-1640 medium (Gibco) with 10% FBS, antibiotics, and supplemented with a cytokine cocktail containing 500 U/mL rhIL-4 and 800 U/mL rhGM-CSF (both Sci-Store, Moscow, Russia). On the third day, the medium was replaced by the same fresh medium with FBS, antibiotics, and the cytokine cocktail. Induction of maturation of the immature monocyte-derived dendritic cells was performed on the 5th day by replacing the medium with the complete RPMI-1640 medium (Gibco) with 10% FBS and antibiotics, supplemented with a cytokine cocktail containing 500 U/mL rhIL-4, 800 U/mL rhGM-CSF (both Sci-Store, Moscow, Russia), and 100 U/mL rhTNF-α (Sigma-Aldrich), and subjected to subsequent incubation of the culture for 4 more days.
Primary blood monocytes, moDCs, and NKT cells were seeded in 600 µL of complete RPMI-1640 with 10% Human AB serum (Capricorn Scientific, Ebsdorfergrund, Germany) and supplemented with 1X antibiotic–antimycotic solution into the wells of 24-well plates at a density of 3–7 × 10^5 cells/well 24 h before the experiment. Then, 24 h later, the medium in each well was replaced by the same medium with 1 µM of LL-37 for the sample wells or fresh medium alone for the control wells, and the permeable inserts with the Caco-2 monolayer with TEER > 400 Ω × cm^2, containing 400 μL of the complete medium in their apical chamber, were immediately placed into the appropriate wells. Also, inserts with the Caco-2 monolayer were placed in cell-free wells of 24-well plates in the same complete RPMI-1640 medium with or without 1 µM of LL-37 as controls. Cells were kept in a CO2-incubator (5% CO2, 37 °C) for another 24 h. Then, culture medium from each well was collected, centrifuged, and frozen at −70 °C.
To quantitatively evaluate a broad spectrum of analytes secreted by human cell cultures at the protein level, multiplex xMAP technology was used. The chosen panel (cat. #HCYTA-60K-PX48, Merck, Darmstadt, Germany) included 48 different magnetic beads with primary antibodies to the following cytokines, chemokines, and growth factors: CCL11 (Eotaxin-1), Flt-3 ligand, CX3CL1 (Fractalkine), sCD40L, FGF-2, EGF, GROα, GM-CSF, G-CSF, IL-1RA, IL-1α, IL-1β, IL-2, IL-3, IL-4, IL-5, IL-6, IL-7, CXCL8 (IL-8), IL-9, IL-10, IL-12p40, IL-12p70, IL-13, IL-15, IL-17A (CTLA8), IL-17E (IL-25), IL-17F, IL-18, IL-22, IL-27, IFNγ, IFNα2, CXCL10 (IP-10), CCL2 (MCP-1), CCL7 (MCP-3), CCL22 (MDC), CXCL9 (MIG), CCL3 (MIP-1α), CCL4 (MIP-1β), CCL5 (RANTES), M-CSF, PDGF-AA, PDGF-AB/BB, TNFα, TNFβ, TGFα, and VEGF-A. The assay was performed in accordance with the manufacturer’s instructions with overnight incubation of the samples with primary antibodies, and the plate was read on a MAGPIX System (Merck) using the xPONENT 4.2 software (Merck). The acquired fluorescence data were analyzed by the MILLIPLEX Analyst v5.1 software (Merck), which realized an advanced curve-fitting algorithm. Levels of the analytes in control and experimental samples were compared with an unpaired two-sample t-test using GraphPad Prism v.8.0.1 (GraphPad Software, Inc., San Diego, CA, USA). The p-values ≤ 0.05 were considered significant.

“LL-37: the only human cathelicidin, host defense antimicrobial peptide of 37 a.a. residues, produced by solid-phase peptide synthesis” showed an RANTES level (n=2, control 1.06) of 181.22 pg/mL, an FLT-3L level (n=2, control 1.18) of 0.93 pg/mL and an IL-2 level (n=2, control 1.49) of 0.99 pg/mL. For the same substance, the IL-18 level (n=2, control 1.74) was 1.22 pg/mL, the IFNg level (n=2, control 1.82) was 1.8 pg/mL and the IL-4 level (n=2, control 1.92) was 1.63 pg/mL. It also gave an IL-17A level (n=2, control 2.18) of 3.05 pg/mL, an IL-15 level (n=2, control 2.88) of 1.82 pg/mL and a GM-CSF level (n=2, control 3.83) of 4.97 pg/mL. It also gave a TGF-a level (n=2, control 4.84) of 3.88 pg/mL, an IL-9 level (n=2, control 6.65) of 6.65 pg/mL and a TNFb level (n=2, control 10.12) of 11.76 pg/mL. For the same substance, the IFNa2 level (n=2, control 15.98) was 11.65 pg/mL, the EGF level (n=2, control 18.24) was 17.26 pg/mL and the IL-1a level (n=2, control 18.92) was 25.51 pg/mL. The IL-10 level (n=2, control 22.54, p = 0.23) was 23.6 pg/mL and 23.64 pg/mL, the IL-13 level (n=2, control 25.51) was 23.32 pg/mL and the IL-1b level (n=2, control 25.75, p = 0.094) was 32 pg/mL and 32.49 pg/mL. For the same substance, the IL-22 level (n=2, control 27.2) was 27.2 pg/mL, the Fractalkine level (n=2, control 28.72) was 25.92 pg/mL and the M-GSF level (n=2, control 32.5) was 62.71 pg/mL. For the same substance, the “IL-12 (p40) level” value (n=2, control 32.89) was 37.68 pg/mL, the VEGFa level (n=2, control 35.58) was 36.32 pg/mL and the MIP-1a level (n=2, control 45.5, p = 0.0001) was 109 pg/mL and 109.63 pg/mL. For the same substance, the FGF-2 level (n=2, control 52.5) was 47.27 pg/mL, the PDGF-AA level (n=2, control 62.71) was 47.99 pg/mL and the IL-27 level (n=2, control 63.66) was 67.29 pg/mL. The MIP-1b level (n=2, control 78.19, p = 0.0004) was 2750 pg/mL, the IL-1RA level (n=2, control 86.47) was 65.97 pg/mL and the sCD40L level (n=2, control 108.76) was 102.18 pg/mL. The TNFa level (n=2, control 110.45, p = 0.15) was 123 pg/mL and 123.49 pg/mL, the G-CSF level (n=2, control 121.45, p = 0.002) was 220 pg/mL and 220.28 pg/mL and the MIG level (n=2, control 606.02, p = 0.003) was 342 pg/mL and 342.19 pg/mL. For the same substance, the PDGF-AB/BB level (n=2, control 1327) was 1070 pg/mL, the IP-10 level (n=2, control 1716) was 11.29 pg/mL and the MDC level (n=2, control 3407) was 3208 pg/mL. The IL-6 level (n=2, control 4145) was 4861 pg/mL, the MCP-3 level (n=2, control 4963) was 3343 pg/mL and the GROa level (n=2, control 5512) was 5987 pg/mL. The MCP-1 level (n=2, control 8325) was 7953 pg/mL, the IL-7 level (n=2, control <0.30) was <0.30↓ pg/ml and the IL-5 level (n=2, control <0.35) was <0.35↓ pg/ml. For the same substance, the IL-3 level (n=2, control <0.55) was <0.55↓ pg/ml, the “IL-12 (p70) level” value (n=2, control <1.71) was <1.71↓ pg/ml and the Eotaxin level (n=2, control <2.91) was <2.91↓ pg/ml. The IL-17F level (n=2, control <12.19) was <12.19↓ pg/ml, the IL-17E/IL-25 level (n=2, control <19.43) was <19.43↓ pg/ml and the IL-8 level (n=2, control >21942) was >21942↑ pg/ml.
